Data: patent publication US7312245B2 (priority 2001, dated 2007)
Read-outs that look alike come from different tables or passages of the source.

Columns and labels:
Assay type in all cases: in vivo
Pyricularia oryzae [1] = details: spray application of wettable powder diluted to 500 ppm; rice Koshihikari 2-leaf stage; spray-inoculated with Pyricularia oryzae spores; examined after 7 days
Pyricularia oryzae [2] = details: nursery box treated with granules 50 g per box; rice Koshihikari; inoculated 30 days after transplantation; lesions counted after 1 week
Pyricularia oryzae [3] = details: granules applied to water surface at 3 kg/10 ares; rice Koshihikari; inoculated 30 days after application; lesions checked after 1 week

| SMILES | Grade of Effect (preventive value, rice blast controlling effect) (Pyricularia oryzae [1]) | Grade of Effect (preventive value, rice blast controlling effect) (Pyricularia oryzae [2]) | Grade of Effect (preventive value, rice blast controlling effect) (Pyricularia oryzae [3]) |
| --- | --- | --- | --- |
| Cc1ccc(C(=O)NCC(C)(NC(=O)OC(C)(C)C)C(C)C)cc1 (stereo not drawn) [compound 469] | B (80% or more and less than 100%) | B (50% or more and less than 80%) | B (50% or more and less than 80%) |
| Cc1ccc(C(=O)NC(C)C(NC(=O)OC(C)(C)C)C(C)C)cc1 (stereo not drawn) [compound 470] | A (100%) | A (From 80% to 100%) | A (From 80% to 100%) |
| CC(C)C(NC(=O)OC(C)(C)C)C(C)NC(=O)c1ccc(Cl)cc1 (stereo not drawn) [compound 471] | A (100%) | A (From 80% to 100%) | A (From 80% to 100%) |
| Cc1ccc(C(=O)NCC(NC(=O)OC(C)(C)C)c2ccccc2)cc1 (stereo not drawn) [compound 504, N-(t-butoxycarbonyl)-N′-(4-methylbenzoyl)-1-phenyl-1,2-ethylenediamine] | B (80% or more and less than 100%) | B (50% or more and less than 80%) | B (50% or more and less than 80%) |
| CC(C)C(CNC(=O)c1ccccc1)NC(=O)Oc1ccccc1 (stereo not drawn) [compound 526] | A (100%) | A (From 80% to 100%) | A (From 80% to 100%) |
| Cc1ccc(C(=O)NCC(NC(=O)Oc2ccccc2)C(C)C)cc1 (stereo not drawn) [compound 530] | A (100%) | A (From 80% to 100%) | A (From 80% to 100%) |
| CC(C)C(CNC(=O)c1ccccc1)NC(=O)OCc1ccccc1 (stereo not drawn) [compound 596] | A (100%) | A (From 80% to 100%) | A (From 80% to 100%) |
| Cc1ccc(C(=O)NCC(NC(=O)OCc2ccccc2)C(C)C)cc1 (stereo not drawn) [compound 600] | A (100%) | A (From 80% to 100%) | A (From 80% to 100%) |
| O=C(NC(CNC(=O)c1ccccc1)c1ccccc1)OCc1ccccc1 (stereo not drawn) [compound 636, N-(benzyloxycarbonyl)-N′-benzoyl-1-phenyl-1,2-ethylenediamine] | A (100%) | A (From 80% to 100%) | A (From 80% to 100%) |
| C=CCOC(=O)NC(CNC(=O)c1ccc(Cl)cc1)C(C)C (stereo not drawn) [compound 739] | A (100%) | A (From 80% to 100%) | A (From 80% to 100%) |
| C=CCOC(=O)NC(CNC(=O)c1ccc(C)cc1)C(C)C (stereo not drawn) [compound 742] | A (100%) | A (From 80% to 100%) | A (From 80% to 100%) |
| C#CCOC(=O)NC(CNC(=O)c1ccc(Cl)cc1)C(C)C (stereo not drawn) [compound 804] | A (100%) | A (From 80% to 100%) | A (From 80% to 100%) |
| C#CCOC(=O)NC(CNC(=O)c1ccc(C)cc1)C(C)C (stereo not drawn) [compound 807] | A (100%) | A (From 80% to 100%) | A (From 80% to 100%) |
| Cc1ccc(COC(=O)NC(CNC(=O)c2ccc(Cl)cc2)C(C)C)cc1 (stereo not drawn) [compound 1049] | A (100%) | A (From 80% to 100%) | A (From 80% to 100%) |
| Cc1ccc(COC(=O)NC(CNC(=O)c2ccc(C)cc2)C(C)C)cc1 (stereo not drawn) [compound 1050] | A (100%) | A (From 80% to 100%) | A (From 80% to 100%) |
| CC(C)C(CNC(=O)c1ccc(Cl)cc1)NC(=O)OCc1ccc(Cl)cc1 (stereo not drawn) [compound 1063] | A (100%) | A (From 80% to 100%) | A (From 80% to 100%) |
| Cc1ccc(C(=O)NCC(NC(=O)OCc2ccc(Cl)cc2)C(C)C)cc1 (stereo not drawn) [compound 1066] | A (100%) | A (From 80% to 100%) | A (From 80% to 100%) |
| CC(OC(=O)NC(CNC(=O)c1ccc(Cl)cc1)C(C)C)c1ccccc1 (stereo not drawn) [compound 1078] | A (100%) | A (From 80% to 100%) | A (From 80% to 100%) |

| SMILES | Grade of Effect (preventive value, rice blast controlling effect) (Pyricularia oryzae [1]) | Grade of Effect (preventive value, rice blast controlling effect) (Pyricularia oryzae [2]) | Grade of Effect (preventive value, rice blast controlling effect) (Pyricularia oryzae [3]) |
| --- | --- | --- | --- |
| Cc1ccc(C(=O)NCC(C)(NC(=O)OC(C)c2ccccc2)C(C)C)cc1 (stereo not drawn) [compound 1081] | A (100%) | A (From 80% to 100%) | A (From 80% to 100%) |
| CC(C)C(CNC(=O)c1ccc(Cl)cc1)NC(=O)OCc1ccco1 (stereo not drawn) [compound 1123] | A (100%) | A (From 80% to 100%) | A (From 80% to 100%) |
| Cc1ccc(C(=O)NCC(NC(=O)OCc2ccco2)C(C)C)cc1 (stereo not drawn) [compound 1126] | A (100%) | A (From 80% to 100%) | A (From 80% to 100%) |
| CC(C)C(CNC(=O)c1ccc(Cl)cc1)NC(=O)OCc1ccoc1 (stereo not drawn) [compound 1138] | A (100%) | A (From 80% to 100%) | A (From 80% to 100%) |
| Cc1ccc(C(=O)NCC(NC(=O)OCc2ccoc2)C(C)C)cc1 (stereo not drawn) [compound 1141] | A (100%) | A (From 80% to 100%) | A (From 80% to 100%) |
| CC(C)C(CNC(=O)c1ccc(Cl)cc1)NC(=O)OCC1CCCO1 (stereo not drawn) [compound 1153] | A (100%) | A (From 80% to 100%) | A (From 80% to 100%) |
| Cc1ccc(C(=O)NCC(NC(=O)OCC2CCCO2)C(C)C)cc1 (stereo not drawn) [compound 1156] | A (100%) | A (From 80% to 100%) | A (From 80% to 100%) |
| CC(C)C(CNC(=O)c1ccc(Cl)cc1)NC(=O)OCc1cccs1 (stereo not drawn) [compound 1168] | A (100%) | A (From 80% to 100%) | A (From 80% to 100%) |
| Cc1ccc(C(=O)NCC(NC(=O)OCc2cccs2)C(C)C)cc1 (stereo not drawn) [compound 1171] | A (100%) | A (From 80% to 100%) | A (From 80% to 100%) |
| CC(C)C(CNC(=O)c1ccc(Cl)cc1)NC(=O)OCC1CC1 (stereo not drawn) [compound 1183] | A (100%) | A (From 80% to 100%) | A (From 80% to 100%) |
| Cc1ccc(C(=O)NCC(NC(=O)OCC2CC2)C(C)C)cc1 (stereo not drawn) [compound 1186] | A (100%) | A (From 80% to 100%) | A (From 80% to 100%) |
| CC(C)C(CNC(=O)c1ccc(Cl)cc1)NC(=O)OCC(C)(C)C (stereo not drawn) [compound 1198] | A (100%) | A (From 80% to 100%) | A (From 80% to 100%) |
| Cc1ccc(C(=O)NCC(NC(=O)OCC(C)(C)C)C(C)C)cc1 (stereo not drawn) [compound 1201] | A (100%) | A (From 80% to 100%) | A (From 80% to 100%) |
| C=C(C)COC(=O)NC(CNC(=O)c1ccc(Cl)cc1)C(C)C (stereo not drawn) [compound 1213] | A (100%) | A (From 80% to 100%) | A (From 80% to 100%) |
| C=C(C)COC(=O)NC(CNC(=O)c1ccc(C)cc1)C(C)C (stereo not drawn) [compound 1216] | A (100%) | A (From 80% to 100%) | A (From 80% to 100%) |
| CC(C)C(CNC(=O)c1ccc(Cl)cc1)NC(=O)OC(C)C(C)C (stereo not drawn) [compound 1228] | A (100%) | A (From 80% to 100%) | A (From 80% to 100%) |
| Cc1ccc(C(=O)NCC(NC(=O)OC(C)C(C)C)C(C)C)cc1 (stereo not drawn) [compound 1231] | A (100%) | A (From 80% to 100%) | A (From 80% to 100%) |
